The values that follow come from patent US20230295152A1 (SENDA BIOSCIENCES, INC., priority 2019, published 2023).

A value given as a limit tells only on which side of the number the result lay.

Data set [1] can be described thus: Plasma Protein Binding with Ultracentrifugation Method, human. Type of data set: in vitro ADME. The note with it: human plasma, 1.0 μM; read-out: Human plasma protein binding (% bound). On the procedure:
The frozen plasma (stored at −80° C.) was thawed in a 37° C. water bath, followed by centrifugation at 3,220 g for 10 minutes to remove clots. The supernatant was removed into a new tube as the spun plasma. The spun plasma was pre-warmed in a 37° C. water bath for 10 minutes. The stock solutions of test compounds were diluted to 200 μM in DMSO, and then spiked into the plasma. Duplicate samples were prepared. The final concentration of compound was 1.0 μM. The final concentration of organic solvent was 0.5%. Warfarin was used as positive control in the assay. 1.0 mL of the spiked plasma was transferred to a new balance ultracentrifuge tube. Samples were incubated at 37° C., 5% CO2 for 30 minutes. After incubation, the balance ultracentrifuge tubes were centrifuged at 600,000 g for 5.5 hours at 37° C. After centrifugation, 50 μL solution was removed from the center of the ultracentrifuge tubes as the post-ultracentrifugation samples, followed by the addition of 50 μL blank plasma and 400 μL quench solution (acetonitrile containing internal standards (IS, 100 nM Alprazolam, 500 nM Labetalol and 2 μM Ketoprofen)) to precipitate protein and release compounds. Samples were vortexed for 2 minutes, followed by centrifugation at 20,000 g for 15 minutes at room temperature. The supernatant was diluted with ultrapure water and then used for LC-MS/MS analysis. Stability samples was prepared by transferring 50 μL of the spiked plasma to 0.6 mL tubes and incubated at 37° C., 5% CO2 for 0.5 and 6 hours. After incubation, 50 μL PBS (100 mM, pH7.4) and 400 μL quench solution were added to the stability samples. And then stability samples were treated the same way as the post-ultracentrifugation samples. The supernatant was diluted with ultrapure water and then used for LC-MS/MS analysis. 0.5 hour time point samples were also used as no-spun controls. Time 0 samples were prepared by transferring 50 μL spiked plasma to 0.6 mL tubes containing 50 μL PBS, followed by the addition of 400 μL quench solution to precipitate protein and release compound. And then these samples were treated the same way as the post-ultracentrifugation samples. The supernatant was diluted with ultrapure water and then used for LC-MS/MS analysis.
Data Analysis: All calculations were carried out using Microsoft Excel. The concentrations of test compound in plasma samples and post-ultracentrifugation plasma was determined from peak areas. The percentages of test compound bound was calculated as follows: […]
“+++” indicates a % bound value less than 50, “++” indicates a % bound value between 50 and 75, and “+” indicates a % bound value above 75.

The nature of data set [2]: Caco-2 Permeability Assay. The note with it: human; for Papp A→B at 2 h, 1 μM: Caco-2, pH 7.4, apical to basolateral, read-out: Caco2 Papp (AB); for Papp B→A at 2 h, 1 μM: Caco-2, pH 7.4, basolateral to apical, read-out: Caco2 Papp (BA). Type of data set: in vitro ADME. The procedure:
Preparation of Caco-2 Cells: 50 μL and 25 mL of cell culture medium were added to each well of the Transwell insert and reservoir, respectively. The HTS transwell plates were incubated at 37° C., 5% CO2 for 1 hour before cell seeding. Caco-2 cells were diluted to 6.86×10^5 cells/mL with culture medium and 50 μL of cell suspension were dispensed into the filter well of the 96-well HTS Transwell plate. Cells were cultivated for 14-18 days in a cell culture incubator at 37° C., 5% CO2, 95% relative humidity. Cell culture medium was replaced every other day, beginning no later than 24 hours after initial plating.
Assessment of Cell Monolayer Integrity: Medium was removed from the reservoir and each Transwell insert and replaced with prewarmed fresh culture medium. Transepithelial electrical resistance (TEER) across the monolayer was measured using Millicell Epithelial Volt-Ohm measuring system (Millipore, USA). The Plate was returned to the incubator once the measurement was done. The TEER value was calculated according to the following equation:
TEER measurement(ohms)×Area of membrane(cm^2)=TEER value(ohm·cm^2)
TEER value should be greater than 230 ohm·cm^2, which indicates the well-qualified Caco-2 monolayer.
Preparation of Solutions: 2 mM stock solutions in DMSO of control compounds were prepared and diluted with HBSS (10 mM HEPES, pH 7.4) to get 10 μM working solution. 0.2 mM stock solutions of test compounds in DMSO were prepared and diluted with HBSS (10 mM HEPES, pH 7.4 with 0.5% BSA) to get 1 μM working solution. Metoprolol, erythromycin and cimetidine were used as control compounds.
Performing the Drug Transport Assay: The Caco-2 plate was removed from the incubator. The monolayer was washed twice with pre-warmed HBSS (10 mM HEPES, pH 7.4). The plate was incubated at 37° C. for 30 minutes. To determine the rate of drug transport in the apical to basolateral direction, 125 μL of the working solution was added to the Transwell insert (apical compartment). A 50 μL sample was transferred immediately from the apical compartment to 200 μL of acetonitrile containing IS (100 nM alprazolam, 200 nM Caffeine and 100 nM tolbutamide) in a new 96-well plate as the initial donor sample (A-B) and it was vortexed at 1000 rpm for 10 minutes. The wells in the receiver plate (basolateral compartment) were filled with 235 μL of transport buffer. To determine the rate of drug transport in the basolateral to apical direction, 285 μL of the working solution were added to the receiver plate wells (basolateral compartment). A 50 μL sample was transferred immediately from the basolateral compartment to 200 μL of acetonitrile containing IS (100 nM alprazolam, 200 nM Caffeine and 100 nM tolbutamide) in a new 96-well plate as the initial donor sample (B-A) and it was vortexed at 1000 rpm for 10 minutes. The Transwell insert (apical compartment) was filled with 75 μL of transport buffer. The apical to basolateral direction and the basolateral to apical direction need to be done at the same time. The plates were incubated at 37° C. for 2 hours. At the end of the incubation, 50 μL samples from donor sides (apical compartment for Ap→B1 flux, and basolateral compartment for B1→Ap) and receiver sides (basolateral compartment for Ap→B1 flux, and apical compartment for B1→Ap) were transferred to wells of a new 96-well plate, followed by the addition of 4 volume of acetonitrile containing IS (100 nM alprazolam, 200 nM Caffeine and 100 nM tolbutamide). Samples were vortexed for 10 minutes, 50 μL samples were transferred to wells of a new 96-well plate, followed by the addition of 50 μL Hepes and 200 μL IS. A11 samples were vortexed for 10 minutes, and then centrifuged at 3,220 g for 40 minutes. An aliquot of 150 μL of the supernatant was mixed with an appropriate volume of ultra-pure water before LC-MS/MS analysis.
Data analysis: All calculations were carried out using Microsoft Excel. Peak areas were determined from extracted ion chromatograms. […]
For orientation: Caco-2 monolayers are a common model of the intestinal barrier.

In the case of `Cn1cc(-c2nc(-c3ccc(C(F)(F)F)nc3)cc3c(=O)n(CC(C)(C)O)cnc23)cn1` [Compound 60], the fraction unbound at 30 min, 1 μM in data set [1] was < 0.25. In data set [2], the Papp A→B at 2 h, 1 μM was > 10 ×10⁻⁶ cm/s and the Papp B→A at 2 h, 1 μM lay in the range of 2 to 10 ×10⁻⁶ cm/s.
On to `Cc1ccc(-c2cc3c(=O)n([C@@H](C)CO)cnc3c(-c3cccnc3)n2)cc1` [Compound 17, (S)-3-(1-hydroxypropan-2-yl)-8-(pyridin-3-yl)-6-(p-tolyl)pyrido[3,4-d]pyrimidin-4(3H)-one], for which the fraction unbound at 30 min, 1 μM in data set [1] is < 0.25. Moreover, in data set [2], the Papp A→B at 2 h, 1 μM was > 10 ×10⁻⁶ cm/s and the Papp B→A at 2 h, 1 μM lay in the range of 2 to 10 ×10⁻⁶ cm/s.
`C[C@@H](CO)n1cnc2c(-c3cnn(C)c3)nc(-c3ccc(Cl)cc3)cc2c1=O` [Compound 27]: in data set [1], the fraction unbound at 30 min, 1 μM was < 0.25. In data set [2], the Papp A→B at 2 h, 1 μM lay within 2 to 10 ×10⁻⁶ cm/s and the Papp B→A at 2 h, 1 μM is < 2 ×10⁻⁶ cm/s.
As for `C[C@@H](CO)n1cnc2c(-c3cccc(F)c3)nc(-c3ccc(Cl)cc3)cc2c1=O` [Compound 7], the fraction unbound at 30 min, 1 μM in data set [1] was < 0.25. In data set [2], the Papp A→B at 2 h, 1 μM was < 2 ×10⁻⁶ cm/s and the Papp B→A at 2 h, 1 μM is < 2 ×10⁻⁶ cm/s.
As to `C[C@@H](CO)n1cnc2c(-c3cccnc3)nc(-c3ccc(C4CC4)nc3)cc2c1=O` [Compound 74], the fraction unbound at 30 min, 1 μM in data set [1] is < 0.25. In data set [2], the Papp A→B at 2 h, 1 μM was 2 to 10 ×10⁻⁶ cm/s and the Papp B→A at 2 h, 1 μM was > 10 ×10⁻⁶ cm/s.
Regarding `C[C@@H](CO)n1cnc2c(-c3cccnc3)nc(-c3ccc(OC(F)(F)F)cc3)cc2c1=O` [Compound 22], the fraction unbound at 30 min, 1 μM in data set [1] is < 0.25. Further, in data set [2], the Papp A→B at 2 h, 1 μM lay in the range of 2 to 10 ×10⁻⁶ cm/s and the Papp B→A at 2 h, 1 μM was in the range of 2 to 10 ×10⁻⁶ cm/s.
